Source: ChEMBL document CHEMBL1201861, “Genomics of Drug Sensitity in Cancer screening data, Wellcome Trust Sanger Institute”

What was measured:
K052 = assay: cells; type: functional, cell-based, Homo sapiens; conditions: Homo sapiens, K052;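 note: Read-out from a cell viability assay, IC50 reflecting suppression of K052 cell growth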
Description: SANGER: Inhibition of human K052 cell growth in a cell viability assay.

NCI-H719 = assay: cells; type: functional, cell-based, Homo sapiens; conditions: Homo sapiens, NCI-H719;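 note: growth inhibition of the cultured cell line, read out with a viability assay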
Description: SANGER: Inhibition of human NCI-H719 cell growth in a cell viability assay.

MOLT-13 = assay: cells; type: functional, cell-based, Homo sapiens; conditions: Homo sapiens, MOLT-13;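 note: IC50 for suppression of MOLT-13 cell growth, read out with a cell viability assay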
Description: SANGER: Inhibition of human MOLT-13 cell growth in a cell viability assay.

IM-9 = assay: SANGER: Inhibition of human IM-9 cell growth in a cell viability assay.; type: functional, cell-based; conditions: Homo sapiens, IM-9
TUR = assay: cells; type: functional, cell-based, Homo sapiens; conditions: Homo sapiens, TUR;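 note: growth inhibition of human TUR cells, read out with a cell viability assay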
Description: SANGER: Inhibition of human TUR cell growth in a cell viability assay.

RPMI-6666 = assay: cells; type: functional, cell-based, Homo sapiens; conditions: Homo sapiens, RPMI-6666
Description: SANGER: Inhibition of human RPMI-6666 cell growth in a cell viability assay.

NCI-H345 = assay: cells; type: functional, cell-based, Homo sapiens; conditions: Homo sapiens, NCI-H345;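 note: growth inhibition of NCI-H345 cells measured with a cell viability assay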
Description: SANGER: Inhibition of human NCI-H345 cell growth in a cell viability assay.

CESS = assay: SANGER: Inhibition of human CESS cell growth in a cell viability assay.; type: functional, cell-based; conditions: Homo sapiens, CESS
NCI-H889 = assay: cells; type: functional, cell-based, Homo sapiens; conditions: Homo sapiens, NCI-H889;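 note: cell growth inhibition of the cell line, read out with a viability assay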
Description: SANGER: Inhibition of human NCI-H889 cell growth in a cell viability assay.

SNU-C1 = assay: cells; type: functional, cell-based, Homo sapiens; conditions: Homo sapiens, SNU-C1;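 note: growth inhibition of SNU-C1 human cells, read out by a cell viability assay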
Description: SANGER: Inhibition of human SNU-C1 cell growth in a cell viability assay.

NCI-H2141 = assay: cells; type: functional, cell-based, Homo sapiens; conditions: Homo sapiens, NCI-H2141;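 note: growth inhibition of human NCI-H2141 cells, read out with a cell viability assay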
Description: SANGER: Inhibition of human NCI-H2141 cell growth in a cell viability assay.

SNU-16 = assay: cells; type: functional, cell-based, Homo sapiens; conditions: Homo sapiens, SNU-16;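 note: growth inhibition of human SNU-16 cells, determined with a cell viability readout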
Description: SANGER: Inhibition of human NCI-SNU-16 cell growth in a cell viability assay.

NB7 = assay: cells; type: functional, cell-based, Homo sapiens; conditions: Homo sapiens, NB7;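 note: growth inhibition of NB7 cells, read out with a cell viability assay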
Description: SANGER: Inhibition of human NB7 cell growth in a cell viability assay.

NCI-H1703 = assay: cells; type: functional, cell-based, Homo sapiens; conditions: Homo sapiens, NCI-H1703;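 note: growth inhibition of NCI-H1703 cells, read out via a cell viability assay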
Description: SANGER: Inhibition of human NCI-H1703 cell growth in a cell viability assay.

SW948 = assay: cells; type: functional, cell-based, Homo sapiens; conditions: Homo sapiens, SW948;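 note: growth inhibition of SW948 cells, read out with a cell viability assay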
Description: SANGER: Inhibition of human SW948 cell growth in a cell viability assay.

OE19 = assay: cells; type: functional, cell-based, Homo sapiens; conditions: Homo sapiens, OE19;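 note: growth inhibition of OE19 cells, measured through a cell viability read-out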
Description: SANGER: Inhibition of human OE19 cell growth in a cell viability assay.

MDA-MB-453 = assay: cells; type: functional, cell-based, Homo sapiens; conditions: Homo sapiens, MDA-MB-453
Description: SANGER: Inhibition of human MDA-MB-453 cell growth in a cell viability assay.

CAL-54 = assay: cells; type: functional, cell-based, Homo sapiens; conditions: Homo sapiens, CAL-54;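 note: growth inhibition of CAL-54 cells, read out by a viability measurement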
Description: SANGER: Inhibition of human CAL-54 cell growth in a cell viability assay.

SK-MEL-28 = assay: cells; type: functional, cell-based, Homo sapiens; conditions: Homo sapiens, SK-MEL-28;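 note: growth inhibition of human SK-MEL-28 cells, read out with a cell viability assay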
Description: SANGER: Inhibition of human SK-MEL-28 cell growth in a cell viability assay.

SW1573 = assay: cells; type: functional, cell-based, Homo sapiens; conditions: Homo sapiens, SW1573;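 note: growth inhibition of SW1573 cells, read out with a cell viability assay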
Description: SANGER: Inhibition of human SW1573 cell growth in a cell viability assay.

BEN = assay: cells; type: functional, cell-based, Homo sapiens; conditions: Homo sapiens, BEN;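 note: growth inhibition of the BEN cell line, read out with a cell viability assay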
Description: SANGER: Inhibition of human BEN cell growth in a cell viability assay.

NCI-H2405 = assay: cells; type: functional, cell-based, Homo sapiens; conditions: Homo sapiens, NCI-H2405;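 note: growth inhibition of the human cell line, read out with a cell viability assay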
Description: SANGER: Inhibition of human NCI-H2405 cell growth in a cell viability assay.

KP-N-YN = assay: cells; type: functional, cell-based, Homo sapiens; conditions: Homo sapiens, KP-N-YN;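 note: growth inhibition of KP-N-YN cells, read out with a cell viability assay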
Description: SANGER: Inhibition of human KP-N-YN cell growth in a cell viability assay.

HPAF-II = assay: cells; type: functional, cell-based, Homo sapiens; conditions: Homo sapiens, HPAF-II;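 note: growth inhibition of HPAF-II cells, read out with a cell viability assay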
Description: SANGER: Inhibition of human HPAF-II cell growth in a cell viability assay.

HuCCT-1 = assay: cells; type: functional, cell-based, Homo sapiens, HuCCT1; conditions: Homo sapiens, HuCCT-1;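 note: growth inhibition of HuCCT-1 cells, read out by a cell viability assay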
Description: SANGER: Inhibition of human HuCCT1 cell growth in a cell viability assay.

D-542MG = assay: cells; type: functional, cell-based, Homo sapiens; conditions: Homo sapiens, D-542MG
Description: SANGER: Inhibition of human D-542MG cell growth in a cell viability assay.

HCC70 = assay: cells; type: functional, cell-based, Homo sapiens; conditions: Homo sapiens, HCC70;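 note: cell viability assay measuring how strongly the compound suppresses proliferation of HCC70 cells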
Description: SANGER: Inhibition of human HCC70 cell growth in a cell viability assay.

HCC1419 = assay: cells; type: functional, cell-based, Homo sapiens; conditions: Homo sapiens, HCC1419;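 note: growth inhibition of human HCC1419 cells, read out as cell viability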
Description: SANGER: Inhibition of human HCC1419 cell growth in a cell viability assay.

C-33-A = assay: cells; type: functional, cell-based, Homo sapiens; conditions: Homo sapiens, C-33-A;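 note: cell viability assay measuring growth inhibition of C-33-A cells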
Description: SANGER: Inhibition of human C-33-A cell growth in a cell viability assay.

J82 = assay: cells; type: functional, cell-based, Homo sapiens; conditions: Homo sapiens, J82;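 note: growth inhibition of J82 cells, read out with a cell viability assay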
Description: SANGER: Inhibition of human J82 cell growth in a cell viability assay.

ASPC1 = assay: cells; type: functional, cell-based, Homo sapiens; conditions: Homo sapiens, ASPC1;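 note: growth inhibition of AsPC-1 cells, read out with a cell viability assay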
Description: SANGER: Inhibition of human AsPC-1 cell growth in a cell viability assay.

KNS-62 = assay: cells; type: functional, cell-based, Homo sapiens; conditions: Homo sapiens, KNS-62;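 note: inhibition of cell growth, read out with a cell viability assay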
Description: SANGER: Inhibition of human KNS-62 cell growth in a cell viability assay.

RD = assay: cells; type: functional, cell-based, Homo sapiens; conditions: Homo sapiens, RD
Description: SANGER: Inhibition of human RD cell growth in a cell viability assay.

DU-145 = assay: cells; type: functional, cell-based, Homo sapiens; conditions: Homo sapiens, DU-145
Description: SANGER: Inhibition of human DU-145 cell growth in a cell viability assay.

NCI-H650 = assay: cells; type: functional, cell-based, Homo sapiens; conditions: Homo sapiens, NCI-H650;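 note: growth inhibition of NCI-H650 cells, read out by a viability assay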
Description: SANGER: Inhibition of human NCI-H650 cell growth in a cell viability assay.

LoVo = assay: cells; type: functional, cell-based, Homo sapiens; conditions: Homo sapiens, LoVo;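 note: growth inhibition of human LoVo cells, read out with a cell viability assay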
Description: SANGER: Inhibition of human LoVo cell growth in a cell viability assay.

SW 1116 = assay: cells; type: functional, cell-based, Homo sapiens; conditions: Homo sapiens, SW 1116;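 note: growth inhibition of SW1116 cells, read out with a cell viability assay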
Description: SANGER: Inhibition of human SW1116 cell growth in a cell viability assay.

DMS-273 = assay: cells; type: functional, cell-based, Homo sapiens; conditions: Homo sapiens, DMS-273
Description: SANGER: Inhibition of human DMS-273 cell growth in a cell viability assay.

DK-MG = assay: cells; type: functional, cell-based, Homo sapiens; conditions: Homo sapiens, DK-MG;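 note: growth inhibition of DK-MG cells, read out with a cell viability assay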
Description: SANGER: Inhibition of human DK-MG cell growth in a cell viability assay.

CAL-27 = assay: cells; type: functional, cell-based, Homo sapiens; conditions: Homo sapiens, CAL-27;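 note: Viability-based readout, IC50 reflecting inhibition of CAL-27 cell growth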
Description: SANGER: Inhibition of human CAL-27 cell growth in a cell viability assay.

A-375 = assay: cells; type: functional, cell-based, Homo sapiens; conditions: Homo sapiens, A-375;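 note: growth inhibition of A375 cells, read out with a cell viability assay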
Description: SANGER: Inhibition of human A375 cell growth in a cell viability assay.

SCC-4 = assay: cells; type: functional, cell-based, Homo sapiens; conditions: Homo sapiens, SCC-4;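 note: growth inhibition of human SCC-4 cells, read out as cell viability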
Description: SANGER: Inhibition of human SCC-4 cell growth in a cell viability assay.

CHL-1 = assay: cells; type: functional, cell-based, Homo sapiens; conditions: Homo sapiens, CHL-1;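 note: cell growth inhibition, read out with a cell viability assay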
Description: SANGER: Inhibition of human CHL-1 cell growth in a cell viability assay.

NCI-H810 = assay: cells; type: functional, cell-based, Homo sapiens; conditions: Homo sapiens, NCI-H810;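 note: IC50 reflects inhibition of cancer cell line growth, read out with a cell viability assay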
Description: SANGER: Inhibition of human NCI-H810 cell growth in a cell viability assay.

HuO9 = assay: cells; type: functional, cell-based, Homo sapiens; conditions: Homo sapiens, HuO9;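 note: growth inhibition of HuO9 cells, read out with a cell viability assay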
Description: SANGER: Inhibition of human HuO9 cell growth in a cell viability assay.

FTC-133 = assay: cells; type: functional, cell-based, Homo sapiens; conditions: Homo sapiens, FTC-133
23132-87 = assay: cells; type: functional, cell-based, Homo sapiens; conditions: Homo sapiens
Description: SANGER: Inhibition of human 23132-87 cell growth in a cell viability assay.

NCI-H28 = assay: cells; type: functional, cell-based, Homo sapiens; conditions: Homo sapiens, NCI-H28;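 note: growth inhibition of human NCI-H28 cells, read out as cell viability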
Description: SANGER: Inhibition of human NCI-H28 cell growth in a cell viability assay.

MC-IXC = assay: cells; type: functional, cell-based, Homo sapiens; conditions: Homo sapiens, MC-IXC;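 note: growth inhibition of MC-IXC cells, read out with a cell viability assay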
Description: SANGER: Inhibition of human MC-IXC cell growth in a cell viability assay.

COc1cc(-c2nn([C@H]3CC[C@H](N4CCN(C(C)=O)CC4)CC3)c3ncnc(N)c23)ccc1NC(=O)c1cc2ccccc2n1C
IC50 (K052): > 5120 nM
IC50 (NCI-H719): > 5120 nM
IC50 (MOLT-13): > 5120 nM
IC50 (IM-9): > 5120 nM
IC50 (TUR): > 5120 nM
IC50 (RPMI-6666): 1580 nM
IC50 (NCI-H345): > 5120 nM
IC50 (CESS): > 5120 nM
IC50 (NCI-H889): > 5120 nM
IC50 (SNU-C1): > 5120 nM
IC50 (NCI-H2141): > 5120 nM
IC50 (SNU-16): > 5120 nM
IC50 (NB7): > 5120 nM

CC(C)c1ccccc1Cc1cc(C(=O)Nc2ccc(S(=O)(=O)c3ccccc3C(C)(C)C)cc2)c(O)c(O)c1O
IC50 (NCI-H1703): 217 nM
IC50 (SW948): 32700 nM
IC50 (OE19): 5980 nM
IC50 (MDA-MB-453): 152 nM
IC50 (CAL-54): 161 nM
IC50 (SK-MEL-28): 1390 nM
IC50 (SW1573): 240 nM
IC50 (BEN): 7410 nM
IC50 (NCI-H2405): 675 nM
IC50 (KP-N-YN): 15900 nM
IC50 (HPAF-II): 228 nM
IC50 (HuCCT-1): 348 nM
IC50 (D-542MG): 462 nM
IC50 (HCC70): 858 nM
IC50 (HCC1419): 918 nM
IC50 (C-33-A): 109 nM
IC50 (J82): 1130 nM
IC50 (ASPC1): 973 nM
IC50 (KNS-62): 559 nM
IC50 (RD): 960 nM
IC50 (DU-145): 52.1 nM
IC50 (NCI-H650): 646 nM
IC50 (LoVo): 161 nM
IC50 (SW 1116): 8450 nM
IC50 (DMS-273): 100 nM
IC50 (DK-MG): 2900 nM
IC50 (CAL-27): 136 nM
IC50 (A-375): 88.8 nM
IC50 (SCC-4): 1300 nM
IC50 (CHL-1): 11.9 nM
IC50 (NCI-H810): 666 nM
IC50 (HuO9): 727 nM
IC50 (FTC-133): 607 nM
IC50 (23132-87): 324 nM
IC50 (NB7): 29.3 nM
IC50 (NCI-H28): 447 nM
IC50 (MC-IXC): 75.3 nM

N#Cc1c(O)c2c(-c3ccc(-c4ccccc4O)cc3)csc2[nH]c1=O
IC50 (NCI-H1703): > 1020 nM
IC50 (K052): 791 nM
IC50 (SW948): > 1020 nM
IC50 (OE19): > 1020 nM
IC50 (MDA-MB-453): > 1020 nM
IC50 (CAL-54): > 1020 nM
IC50 (SK-MEL-28): > 1020 nM
IC50 (NCI-H719): > 1020 nM
IC50 (SW1573): > 1020 nM
IC50 (BEN): > 1020 nM
IC50 (NCI-H2405): > 1020 nM
IC50 (HPAF-II): > 1020 nM
IC50 (HuCCT-1): > 1020 nM
IC50 (D-542MG): > 1020 nM
IC50 (HCC70): > 1020 nM
IC50 (IM-9): > 1020 nM
IC50 (HCC1419): > 1020 nM
IC50 (TUR): 345 nM
IC50 (C-33-A): > 1020 nM
IC50 (J82): > 1020 nM
IC50 (ASPC1): > 1020 nM
IC50 (RD): > 1020 nM
IC50 (DU-145): > 1020 nM
IC50 (NCI-H650): > 1020 nM
IC50 (LoVo): > 1020 nM
IC50 (RPMI-6666): 68 nM
IC50 (NCI-H345): > 1020 nM
IC50 (DMS-273): > 1020 nM
IC50 (CESS): 101 nM
IC50 (DK-MG): > 1020 nM
IC50 (CAL-27): > 1020 nM
IC50 (NCI-H889): > 1020 nM
IC50 (SNU-C1): > 1020 nM
IC50 (A-375): > 1020 nM
IC50 (SCC-4): > 1020 nM
IC50 (CHL-1): > 1020 nM
IC50 (NCI-H810): > 1020 nM
IC50 (NCI-H2141): 633 nM
IC50 (HuO9): > 1020 nM
IC50 (FTC-133): > 1020 nM
IC50 (SNU-16): > 1020 nM
IC50 (23132-87): > 1020 nM
IC50 (NCI-H28): > 1020 nM
IC50 (MC-IXC): > 1020 nM
